{
  "source": "paper PMC5902495",
  "about": "“Synthesis of Symmetrical Tetrameric Conjugates of the Radiolanthanide Chelator DOTPI for Application in Endoradiotherapy by Means of Click Chemistry” (Frontiers in Chemistry, 2018)",
  "key": {"[1]": {"assay": "Protonation constants of ligands by pH-potentiometry", "type": "physicochemical", "settings": "25°C, I = 0.15 M NaCl", "excerpt": "For determining the protonation constants of DOTPI(Chx)4 and DOTPI three parallel pH-potentiometric titration were made with 0.2 M NaOH in 0.002 M ligand solutions. The stability and protonation constants of the Ca^II and Zn^II complexes formed with DOTPI(Chx)4 and DOTPI ligands have been determined by direct pH-potentiometric titration made at 1:1 and 2:1 metal to ligand concentration ratios. (the concentration of ligands was 0.002 M). For the calculation of the logKML and logKMLHi values, the mL base—pH data used were obtained in the pH range 1.7–12.0.\nFor pH measurements and titrations, a Metrohm 785 DMP Titrino titration workstation and a Metrohm-6.0233.100 combined electrode were used. Equilibrium measurements were carried out at a constant ionic strength (0.15 M NaCl) in 6 mL samples at 25°C. The solutions were stirred, and constantly purged with N2. The titrations were performed in a pH range of 1.7–11.7. KH-phthalate (pH = 4.005) and borax (pH = 9.177) buffers were used to calibrate the pH meter. For calculation of [H^+] from measured pH values, the method proposed by Irving et al. was used (Irving et al., [1967]). A 0.01 M HCl solution was titrated with the standardized NaOH solution in the presence of 0.1 M NaCl. Differences between the measured (pHread) and calculated pH (–log[H^+]) values were used to obtain the equilibrium H^+ concentration from the pH values, measured in the titration experiments. For the equilibrium calculations, the stoichiometric water ionic product (pKw) is also needed to calculate [H^+] values in basic conditions. The VNaOH – pHread data pairs of the HCl – NaOH titration obtained in the pH range 10.5–12 have been used to calculate the pKw value (pKw = 13.85). For the calculation of the equilibrium constants the program PSEQUAD (Zekany and Nagypal, [1985]) was used.\n2. Protonation and complexation equilibria of DOTPI and\nThe protonation processes of the DOTPI and DOTPI(Chx)4, ligands have been studied by pH-potentiometry. The protonation constants (logKiH) of ligands are defined according to Eq. (1).\nThe stability and protonation constants of DOTPI and DOTPI(Chx)4 complexes with several metal ions were determined by pH-potentiometric and UV/Vis spectrophotometric, methods.\nThe stability and protonation constants of the metal complexes formed with the DOTPI and DOTPI(Chx)4, ligands, defined by Eqs. […]\nwhere i = 1, 2, 3…5. The KML and KMHiL values characterizing the formation of DOTPI and DOTPI(Chx)4 complexes of CaII and ZnII have been calculated from the pH-potentiometric titration data obtained at 1:1 metal to ligand concentration ratios. The protonation constants of the complexes Cu(DOTPI) and Cu(DOTPI( Chx)4) were also determined by pH-potentiometric titrations, made at 1:1 metal to ligand concentration ratio. The pH-potentiometric titrations of DOTPI ligand were also performed at 2:1 metal-to-ligand ratio in order to examine the possible formation of dinuclear CaII-, ZnII-, and CuII-DOTPI complexes.\nThe stability and protonation constants of the dinuclear complexes formed with the DOTPI […]\nwhere i=1 and 2. In calculating the equilibrium constants, the best fit of the mL base – pH data was obtained by assuming the formation of ML, MHL, MH 2L, MH3L, MH4L, MH5L, M2L, M2LH, and M2LH2 complexes with DOTPI and DOTPI(Chx)4.\n(also on this page, place not known: ]H][LH[ ]LH[K 1i iH + − = DOTPI( Chx)4 f ormed ]L][M[ ]ML[K ML = ]H][LMH[ ]LMH[K 1i i LMHi + − = i 3 …5. Ca II Zn II -potentiometric pH - metal -to-ligand Cu II-DOTPI ]M][ML[ ]LM[K 2 LM2 = ]H][LHM[ ]LHM[K 1i2 i2 LHM i2 + − = pH MH 4L,) […]"}, "[2]": {"settings": "25°C, I = 0.1 M Me4NCl; ref Lázár et al., [1991]; cited from earlier work"}},
  "data": [
    {"smiles": "O=C(O)CCP(=O)(O)CN1CCN(CP(=O)(O)CCC(=O)O)CCN(CP(=O)(O)CCC(=O)O)CCN(CP(=O)(O)CCC(=O)O)CC1", "note": "[DOTPI, 1,4,7,10-tetraazacyclododecane-1,4,7,10-tetrakis[methylene(2-carboxyethylphosphinic acid)]]", "values": [
      {"measurement": "log K1H", "setting": "[1]", "value": "10.27 (1)"},
      {"measurement": "log K2H", "setting": "[1]", "value": "8.42 (1)"},
      {"measurement": "log K3H", "setting": "[1]", "value": "5.45 (2)"},
      {"measurement": "log K4H", "setting": "[1]", "value": "4.78 (2)"},
      {"measurement": "log K5H", "setting": "[1]", "value": "4.42 (2)"},
      {"measurement": "log K6H", "setting": "[1]", "value": "3.88 (2)"},
      {"measurement": "log K7H", "setting": "[1]", "value": "2.83 (2)"},
      {"measurement": "log K8H", "setting": "[1]", "value": "1.17 (2)"},
      {"measurement": "Σlog KiH (total basicity)", "setting": "[1]; distant carboxylate groups of DOTPI not considered", "value": 22.69},
      {"measurement": "logKML, ZnL", "setting": "[2]", "value": 18.57}
    ]}
  ]
}
